Tested on: K12877-001-R-J1-PDC complex spheroid viability
Test: Anticancer human tumor K12877-001-R-J1-PDC patient-derived lung adenocarcinoma cell line growth inhibition [RAS]
Details: for IC50: curve of first compound; for viability, T/C: stronger effect = lower value; active means viability on the fitted dose curve at most 10% of control; inactive means the rest
Procedure, shortened: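 Tumour cells grown as complex spheroids with HUVEC endothelial cells and mesenchymal stem cells, treated with RAS pathway inhibitor combinations. Each agent spans half-log steps from near clinical Cmax, or 10 microM where Cmax is unknown.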

[1] = second compound 0.000949 µM, first compound 0.0316 µM
[2] = second compound 0.000949 µM, first compound 0.1 µM
[3] = second compound 0.000949 µM, first compound 0.316 µM
[4] = second compound 0.000949 µM, first compound 1 µM
[5] = second compound 0.000949 µM, first compound 3.16 µM
[6] = second compound 0.000949 µM, first compound 10 µM
[7] = second compound 0.003 µM, first compound 0.0316 µM
[8] = second compound 0.003 µM, first compound 0.1 µM
[9] = second compound 0.003 µM, first compound 0.316 µM
[10] = second compound 0.003 µM, first compound 1 µM
[11] = second compound 0.003 µM, first compound 3.16 µM
[12] = second compound 0.003 µM, first compound 10 µM
[13] = second compound 0.00949 µM, first compound 0.0316 µM
[14] = second compound 0.00949 µM, first compound 0.1 µM
[15] = second compound 0.00949 µM, first compound 0.316 µM
[16] = second compound 0.00949 µM, first compound 1 µM
[17] = second compound 0.00949 µM, first compound 3.16 µM
[18] = second compound 0.00949 µM, first compound 10 µM
[19] = second compound 0.03 µM, first compound 0.0316 µM
[20] = second compound 0.03 µM, first compound 0.1 µM
[21] = second compound 0.03 µM, first compound 0.316 µM
[22] = second compound 0.03 µM, first compound 1 µM
[23] = second compound 0.03 µM, first compound 3.16 µM
[24] = second compound 0.03 µM, first compound 10 µM
[25] = second compound 0.0949 µM, first compound 0.0316 µM
[26] = second compound 0.0949 µM, first compound 0.1 µM
[27] = second compound 0.0949 µM, first compound 0.316 µM
[28] = second compound 0.0949 µM, first compound 1 µM
[29] = second compound 0.0949 µM, first compound 3.16 µM
[30] = second compound 0.0949 µM, first compound 10 µM
[31] = second compound 0.3 µM, first compound 0.0316 µM
[32] = second compound 0.3 µM, first compound 0.1 µM
[33] = second compound 0.3 µM, first compound 0.316 µM
[34] = second compound 0.3 µM, first compound 1 µM
[35] = second compound 0.3 µM, first compound 3.16 µM
[36] = second compound 0.3 µM, first compound 10 µM
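Further: spheroids exposed to agents for one week before readout.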
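Wherever viability, T/C is given: tumour cells co-cultured with HUVEC and mesenchymal stem cells in spheroids.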

CC1(O)CCCC1n1c(=O)c(C(F)F)cc2cnc(NC3CCN(S(C)(=O)=O)CC3)nc21 (centres undefined) + CCn1c(-c2cccnc2C(C)OC)c2c3cc(ccc31)N1CCOC(CC(NC(=O)C(C(C)C)N(C)C(=O)C3(F)CCN(C(=O)C#CC(C)(C)N(C)C)CC3)C(=O)N3CCCC(N3)C(=O)OCC(C)(C)C2)C1
107 nM: IC50 (second compound 0.03 µM)
active: viability, T/C [6] 2.35% | viability, T/C [12] 2.96% | viability, T/C [24] 2.85% | viability, T/C [30] 2.46% | viability, T/C [36] 2.35%
126 nM: IC50 (second compound 0.003 µM)
134 nM: IC50 (second compound 0.00949 µM)
97.9 nM: IC50 (second compound 0.3 µM)
80.8 nM: IC50 (second compound 0.0949 µM)
inactive: viability, T/C [1] 89.8% | viability, T/C [2] 61.3% | viability, T/C [3] 31.9% | viability, T/C [4] 38.7% | viability, T/C [5] 23.8% | viability, T/C [7] 76% | viability, T/C [8] 46.7% | viability, T/C [9] 31.2% | viability, T/C [10] 34.5% | viability, T/C [11] 21.3% | viability, T/C [13] 71.9% | viability, T/C [14] 43.5% | viability, T/C [15] 33.3% | viability, T/C [16] 36.8% | viability, T/C [17] 33.7% | viability, T/C [18] 2.22% | viability, T/C [19] 66.2% | viability, T/C [20] 45.8% | viability, T/C [21] 32.1% | viability, T/C [22] 34.5% | viability, T/C [23] 27.8% | viability, T/C [25] 55.7% | viability, T/C [26] 56.5% | viability, T/C [27] 27.5% | viability, T/C [28] 27.9% | viability, T/C [29] 33.9% | viability, T/C [31] 68.5% | viability, T/C [32] 51.2% | viability, T/C [33] 27.1% | viability, T/C [34] 25.7% | viability, T/C [35] 20.3%
202 nM: IC50 (second compound 0.000949 µM)

CCC(CC)c1cc(NC2CCC(N)C2)n2nccc2n1 (centres undefined) + CCn1c(-c2cccnc2C(C)OC)c2c3cc(ccc31)N1CCOC(CC(NC(=O)C(C(C)C)N(C)C(=O)C3(F)CCN(C(=O)C#CC(C)(C)N(C)C)CC3)C(=O)N3CCCC(N3)C(=O)OCC(C)(C)C2)C1
1020 nM: IC50 (second compound 0.003 µM)
877 nM: IC50 (second compound 0.00949 µM)
903 nM: IC50 (second compound 0.03 µM)
1300 nM: IC50 (second compound 0.000949 µM)
508 nM: IC50 (second compound 0.3 µM)
active: viability, T/C [5] 1.95% | viability, T/C [6] 0.98% | viability, T/C [11] 1.27% | viability, T/C [12] 1.35% | viability, T/C [17] 1.95% | viability, T/C [18] 0.75% | viability, T/C [23] 1.63% | viability, T/C [24] 1.21% | viability, T/C [29] 1.61% | viability, T/C [30] 1.11% | viability, T/C [35] 1.98% | viability, T/C [36] 0.91%
808 nM: IC50 (second compound 0.0949 µM)
inactive: viability, T/C [1] 78.9% | viability, T/C [2] 83.2% | viability, T/C [3] 80.2% | viability, T/C [4] 64.3% | viability, T/C [7] 72% | viability, T/C [8] 85.8% | viability, T/C [9] 72.8% | viability, T/C [10] 51% | viability, T/C [13] 85.2% | viability, T/C [14] 70.9% | viability, T/C [15] 69.5% | viability, T/C [16] 48% | viability, T/C [19] 74% | viability, T/C [20] 70.5% | viability, T/C [21] 69.2% | viability, T/C [22] 48% | viability, T/C [25] 83.6% | viability, T/C [26] 70.2% | viability, T/C [27] 75% | viability, T/C [28] 44.2% | viability, T/C [31] 76.8% | viability, T/C [32] 69.9% | viability, T/C [33] 61.7% | viability, T/C [34] 33.5%

— PubChem BioAssay AID2060894 (Molecular Pharmacology Branch, DTP, NCI, 2025)
